Results on 7 compounds are retold here after patent US5677350A, “Inhibition of cancer cell growth, proliferation, and metastasis using N,N'-dα,ω-diaminoalkanes” (priority 1995, dated 1997).

Data set [1] concerns the target T1, ODC (Rattus norvegicus, UniProt P09057).
T1 sequence (P09057 1-461): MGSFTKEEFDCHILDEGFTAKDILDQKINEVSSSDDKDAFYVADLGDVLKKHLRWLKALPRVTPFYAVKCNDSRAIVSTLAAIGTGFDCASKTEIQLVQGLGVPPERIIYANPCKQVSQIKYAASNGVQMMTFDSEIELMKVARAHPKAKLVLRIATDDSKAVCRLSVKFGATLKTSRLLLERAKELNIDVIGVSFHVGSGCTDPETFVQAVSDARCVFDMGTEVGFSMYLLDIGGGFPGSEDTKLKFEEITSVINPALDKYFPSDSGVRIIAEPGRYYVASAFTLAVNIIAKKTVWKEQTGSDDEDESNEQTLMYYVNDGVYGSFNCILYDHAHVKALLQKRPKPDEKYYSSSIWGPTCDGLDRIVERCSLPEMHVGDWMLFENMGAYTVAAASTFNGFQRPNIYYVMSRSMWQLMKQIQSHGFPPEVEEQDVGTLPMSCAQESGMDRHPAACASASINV
The conditions noted are these: for inhibition at 15000 µM: read-out: ODC activity decreased.

Data set [2] deals with active putrescine transport. The experiment in a line: Uptake of (1,4-14C)-putrescine by H-4-II-E hepatoma cells. It counts as cell-based, rat. Here is the method:
(1,4-^14 C)-putrescine (10 μM) was added to the culture medium, and radioactivity measured in the cells (dpm/10 μg of protein). Uptake by control cells was considered to be 100%.
Because putrescine uptake by cells is regulated by an active transport system, its Km was determined for the H-4-II-E hepatoma cell line. The uptake of (1,4-^14 C)-putrescine was determined at two different putrescine concentrations as a function of time.
Each value of the plot was corrected by subtracting the amount of label due to non-specific binding to the cell membranae.

The target of data set [3] is T1, ODC. The experiment in a line: ODC activity in insulin-induced H-35 hepatoma cells. Type of data set: cell-based. The conditions noted are these: 100 μM; for ODC activity (in words): added simultaneously with insulin. Here is the method:
It is known that in hepatoma H-35 cells, ODC activity is very low in quiescent cells, and is increased by the addition of 10^-6 M insulin, reaching a peak approximately 4 to 5 hours after the addition of the insulin.

Data set [4] relates to insulin-induced H-35 hepatoma cells. The experiment in a line: Intracellular polyamine levels in insulin-induced H-35 hepatoma cells. It counts as cell-based, rat. The note with it: 100 μM, hour 4.
Data set [5] relates to rat H-4-II-E hepatoma cells. Put plainly: Proliferation of rat H-4-II-E hepatoma cells in culture. It counts as cell-based. Here is the method: (§1) Incubation of the cultures was carried out in standard fashion in the presence of 1 mM aminoguandine, an inhibitor of polyamine oxidases (PAO).
Cell proliferation studies were also conducted to analyze the effect of the terminal groups on cell inhibition. […] The results are depicted graphically in FIG. 5.
Comparative proliferation studies were also carried out to study the effect of chain length on the inhibitory effect of N,N'-dibenzylaminoalkanes. (See FIG. 6.) The in vitro inhibitory effects of DMP, DMC, and DBPr, were studied in the same rat H-4-II-E hepatoma cells as the above experiments.
Results are shown graphically in FIG. 10.

In data set [6] the test system is rat H-4-II-E hepatoma cells. Put plainly: Cell morphology of rat H-4-II-E hepatoma cells (photomicrographs). It counts as cell-based. Here is the method:
as §1
FIG. 7 is a series of photomicrographs (×160) of the above homologous cultures. The photomicrographs were taken 24 hours after introduction of the dibenzyldiaminoalkanes. […] Photo 7A is the control culture.

For the next data set, the system named is H-35 cells. The experiment in a line: DBP uptake and intracellular distribution in H-35 hepatoma cells. Type of data set: in vitro ADME, rat.
The subject of data set [7] is cell-derived rat and human xenografts. The note with it: compared with 0.15% DBP; cited from earlier work.
Setting [8] is: added 3 hours after insulin (time 4 hours).
The mark [9] stands for this setting: H-35 cells not treated with insulin.

The structures appear in SMILES notation.

In the case of `CCNCCCCNCC` [DEP, diethyl putrescine], the inhibition at 15000 µM on ODC [1] was found to be 13%.

As to `NCCCCN` [putrescine, 1,4-diaminobutane], the Km in data set [2] (2 mM and 20 mM (1,4-14C)-putrescine) is 5.2 ± 0.6 µM. In addition, on ODC [3] (time 1 hour), the “ODC inhibition (in words)” value is reported as “required longer time periods to reach similar ODC inhibition levels”. For the same compound, in data set [4], the intracellular putrescine level entry was “greatly increased the putrescine cell contents”; the intracellular spermidine level result is “very little effect on intracellular spermidine and spermine levels”; the intracellular spermine level result was “very little effect on intracellular spermidine and spermine levels”. For the same compound, the inhibition at 15000 µM on ODC [1] came out at 57%.

As for `c1ccc(CNCCCCCNCc2ccccc2)cc1` [DBC, N,N'-dibenzylcadaverine], the “effect on cell proliferation” value in data set [5] (100 μM, time not stated) is recorded as “showed inhibition of cell proliferation”. Further, the “effect on cell morphology” value in data set [6] (100 μM, 24 hours) is “affect cell morphology similarly”. Also, the “inhibition of uptake of exogenous putrescine” value in data set [2] ((1,4-14C)-putrescine 10 μM) was “produced an inhibition of the uptake of exogenous putrescine”. Besides, the “ODC inhibition (in words)” value at ODC [3] (setting [8]) was “ODC inhibition values were very similar”. Also, the “ODC activity (in words)” value at ODC [3] is given as “no significant ODC activity was detected”. The “in vitro ODC inhibition (in words)” value on ODC [1] (isolated ODC) is “weaker inhibitors than putrescine itself”. For the same compound, on ODC [1], the inhibition at 15000 µM was below 10%.

As to `c1ccc(CNCCCCNCc2ccccc2)cc1` [DBP, N,N'-dibenzylputrescine], the “ODC inhibition (in words)” value at ODC [3] (setting [8]) is “ODC inhibition values were very similar”. Further, the “ODC activity (in words)” value at ODC [3] is “no significant ODC activity was detected”. Further, the “ODC inhibition (in words)” value at ODC [3] (time 1 hour) is “required longer time periods to reach similar ODC inhibition levels”. In the data set on H-35 cells (setting [9]), the “intracellular distribution of DBP, cytosol” value was determined as 97% and the “intracellular distribution of DBP, nuclear fraction” value was found to be 2%. Further, the “DBP uptake, of the amount added” value in the data set with H-35 cells (H-35 cells not treated with insulin, 100 μM, 24 hours) is “approximately 6±2%”. Also, the “DBP uptake, of the amount of putrescine added to the medium” value in the data set with H-35 cells (insulin-induced H-35 cells, 100 μM) is “approximately 13±4%”. In addition, the inhibition at 15000 µM at ODC [1] was below 10%.

Turning to `c1ccc(CNCCCNCc2ccccc2)cc1` [DBPr, dibenzylpropanediamine], the inhibition at 15000 µM on ODC [1] is below 10%.

Turning to `CNCCCCNC` [DMP, dimethyl putrescine], the inhibition at 15000 µM at ODC [1] was 33%.

As to `NCCCC(N)(C(=O)O)C(F)F` (stereo not drawn) [DFMO, difluoromethylornithine], the “effect on cell proliferation” value in data set [5] (100 μM, time not stated) was “ineffective in inhibiting cell proliferation”; in data set [5] (1 mM, after 48 hours), “inhibit cell proliferation”. For the same compound, the minimal effective concentration in data set [5] (H4IIE, rat hepatoma cell line, read-out: concentration required for similar cytostatic effect) stood at 1000 µM. Further, the “effect on cell morphology” value in data set [6] (100 μM, 24 hours) was “no morphological changes”; in data set [6] (1 mM), “no morphological changes”. Further, the “ODC inhibited from the control group” value at ODC [3] (added 1 hour before harvesting (6 hours after insulin)) was determined as 79%. Moreover, the “ODC inhibition (in words)” value at ODC [3] (setting [8]) was “ODC inhibition values were very similar”. The “ODC activity (in words)” value on ODC [3] is on record as “no significant ODC activity was detected”. For the same compound, the intracellular putrescine level entry in data set [4] is on record as “decreased the endogenous levels of putrescine”. Moreover, the intracellular spermidine level result in data set [4] is listed as “lowered the levels of spermidine”. In data set [4], the intracellular spermine level entry is recorded as “Neither reagent had an effect on the intracellular concentration of spermine”. Besides, the “concentration required to produce the same effect on xenografts” value in data set [7] is recorded as 2%.
